The results in this text go back to PMC10459693, “Toward Stability Enhancement of NTS1R-Targeted Radioligands: Structural Interventions on [^99mTc]Tc-DT1” (Pharmaceutics, 2023).

The target of the assay is T1, human NTS1R (Homo sapiens, UniProt P30989).
T1 construct: Cell membrane homogenates from WiDr cells were collected; host or cells: WiDr human colorectal adenocarcinoma cells (membrane homogenates)
The assay is described as follows: Competition binding against [^125I]I-Tyr^3-NT in WiDr cell membranes. The note with it: for IC50: displacement of [^125I]I-Tyr^3-NT, WiDr cell membranes, 1 h at 22 °C, mean ± sd. How it is done:
Cell membrane homogenates from WiDr cells were collected and stored in Tris/EDTA (10 mM Tris, 0.1 mM EDTA, pH 7.4) solution at −80 °C, as previously described. On the day of the experiment, the aliquots thereof were thawed, combined, and diluted in cold binding buffer (BB: 50 mM HEPES, 5.5 mM MgCl2, 0.1 mg/mL bacitracin, 1% w/v BSA, pH 7.4). A dilution series of each test peptide (10^−12–10^−5 M) and a fresh solution of [^125I]I-Tyr^3-NT (~40,000 cpm/70 μL, 214 pM) were prepared and kept on ice. In each RIA tube per placed on ice (in triplicate for each concentration point), the following ice-cold solutions were added: test peptide solution (30 μL), the [^125I]I-Tyr^3-NT radioligand (70 μL), and membrane homogenate (200 μL). Tubes were incubated under constant stirring for 1 h at 22 °C in an Incubator-Orbital Shaker (MPM Instr. Srl; Bernareggio, Italy). The incubation was terminated by placing the tubes on ice and adding ice-cold washing buffer (10 mM HEPES, 150 mM NaCl, pH 7.4). Samples were rapidly passed through Whatman GF/B filters (presoaked for 1 h in BB) on a 48-sample Brandel Cell Harvester (Adi Hassel Ingenieur Büro, Munich, Germany). Separate filters were measured for radioactivity on the γ-counter, and the half maximal inhibition concentration (IC50) was calculated applying a non-linear one-site model (GraphPad Prism Software 6.0, San Diego, CA, USA).

Each structure is given as a SMILES string. Square brackets hold non-standard residues; d marks the D form. Peptide text beside a SMILES is read from it. * marks the point of attachment. Palmitoyl = CCCCCCCCCCCCCCCC(=O)*; X1 = NCCNCC(CNCCN)C(=O)*

T1 sequence (P30989 whole entry): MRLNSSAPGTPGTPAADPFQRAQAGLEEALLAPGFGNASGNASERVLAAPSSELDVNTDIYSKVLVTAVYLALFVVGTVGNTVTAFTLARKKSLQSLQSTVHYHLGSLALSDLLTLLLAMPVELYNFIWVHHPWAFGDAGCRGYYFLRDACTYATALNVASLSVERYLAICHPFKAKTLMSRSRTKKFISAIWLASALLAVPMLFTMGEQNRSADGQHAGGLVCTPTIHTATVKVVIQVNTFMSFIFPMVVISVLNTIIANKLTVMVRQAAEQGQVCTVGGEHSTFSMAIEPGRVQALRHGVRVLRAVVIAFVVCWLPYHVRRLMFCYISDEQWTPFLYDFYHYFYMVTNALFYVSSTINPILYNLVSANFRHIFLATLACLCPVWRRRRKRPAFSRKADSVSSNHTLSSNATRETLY

For the compound `CCCCCCCCCCCCCCCC(=O)NCCCC[C@H](NC(=O)C(CNCCN)CNCCN)C(=O)N[C@@H](CCCNC(=N)N)C(=O)N[C@@H](CCCNC(=N)N)C(=O)N1CCC[C@H]1C(=O)N[C@@H](Cc1ccc(O)cc1)C(=O)N[C@H](C(=O)N[C@@H](CC(C)C)C(=O)O)[C@@H](C)CC` [DT9] (X1-K(Palmitoyl)RRPYIL-OH), the IC50 (commonly the concentration needed to halve the response being measured) was 0.89 ± 0.7 nM. In turn, `CC[C@H](C)[C@H](NC(=O)[C@H](Cc1ccc(O)cc1)NC(=O)[C@@H]1CCCN1C(=O)[C@H](CCCNC(=N)N)NC(=O)[C@H](CCCNC(=N)N)NC(=O)CNC(=O)C(CNCCN)CNCCN)C(=O)N[C@@H](CC(C)C)C(=O)N[C@H](CC(N)=O)C(=O)O` [DT7, N4-Gly-Arg-Arg-Pro-Tyr-Ile-Leu-DAsn-OH] (X1-GRRPYIL[dN]-OH) had an IC50 of 29.1 ± 4.11 nM. Further, the “drop of binding affinity to the NTS1R compared to DT1” value (by a power of) was about 100.
